Test results: ChEMBL document CHEMBL1201862, “PubChem BioAssay data set” (2004)
Blank lines part the entries; values can stand above or below the compound they belong to. Calls of active or inactive are those of the source.

Legend:
[1] = NIH3T3 cell viability loss – ATP luminescence, mouse fibroblasts, counter-screen, dose response (AID 2010); type: functional, cell-based;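 note: cells exposed to compound for about 90 hours before reading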
[2] = Trypanosoma cruzi growth suppression in host cells – NIH3T3 host cells, beta-gal luminescence, confirmation (AID 2044); type: functional, cell-based;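 note: intracellular parasites grown in NIH/3T3 mouse fibroblasts as host cells; luminescent beta-galactosidase reporter signal from transgenic T. cruzi replicating inside host cells; inhibitors lower the luminescence signal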
[3] = molecular target: T1, Tyrosine-protein phosphatase non-receptor type 7 (Homo sapiens, UniProt P35236); assay: HePTP tyrosine phosphatase activity blockers – biochemical, absorbance, leukemia target, primary screen (AID 521); type: functional
T1 sequence (P35236 whole entry): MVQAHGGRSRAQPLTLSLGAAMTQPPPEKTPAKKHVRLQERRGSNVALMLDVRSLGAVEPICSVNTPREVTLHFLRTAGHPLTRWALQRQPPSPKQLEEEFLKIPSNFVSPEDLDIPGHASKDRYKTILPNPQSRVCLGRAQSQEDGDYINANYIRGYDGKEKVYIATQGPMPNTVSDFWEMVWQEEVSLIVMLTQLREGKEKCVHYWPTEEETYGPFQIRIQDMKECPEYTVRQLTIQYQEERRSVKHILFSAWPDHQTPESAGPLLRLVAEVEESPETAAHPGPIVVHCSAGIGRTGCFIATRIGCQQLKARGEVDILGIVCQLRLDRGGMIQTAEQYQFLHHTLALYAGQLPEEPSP

[4] = blockers of HIV-1 ZM109 envelope-driven cell-cell fusion – HeLa effector, CEM target cells, luciferase, cherry-pick, dose response (AID 652058); type: functional, cell-based;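 note: luciferase signal from HIV-1 Env mediated cell-cell fusion of effector and target cells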
[5] = HIV-1 AD8 envelope cell-cell fusion blockers – cherry-pick, dose response (AID 652062); type: functional, cell-based;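 note: luciferase signal from cell-cell fusion driven by HIV-1 clade B AD8 Env; potency is for inhibitors of fusion seen as a drop in luminescence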
Protein Tat = Protein Tat (Human immunodeficiency virus type 1 group M subtype B (isolate HXB2)(HIV-1), UniProt P04608); type: functional;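 note: tat binding to TAR RNA read out by fluorescence polarization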
Protein Tat, sequence (P04608 whole entry): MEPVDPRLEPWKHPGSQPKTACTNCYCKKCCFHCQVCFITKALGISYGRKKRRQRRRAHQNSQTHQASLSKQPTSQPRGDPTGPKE

[6] = molecular target: T2, Dual specificity protein phosphatase 6 (Rattus norvegicus, UniProt Q64346); assay: inhibition of rat DUSP6 enzyme activity – biochemical, in vitro, primary screen (AID 425)
T2 sequence (Q64346 whole entry): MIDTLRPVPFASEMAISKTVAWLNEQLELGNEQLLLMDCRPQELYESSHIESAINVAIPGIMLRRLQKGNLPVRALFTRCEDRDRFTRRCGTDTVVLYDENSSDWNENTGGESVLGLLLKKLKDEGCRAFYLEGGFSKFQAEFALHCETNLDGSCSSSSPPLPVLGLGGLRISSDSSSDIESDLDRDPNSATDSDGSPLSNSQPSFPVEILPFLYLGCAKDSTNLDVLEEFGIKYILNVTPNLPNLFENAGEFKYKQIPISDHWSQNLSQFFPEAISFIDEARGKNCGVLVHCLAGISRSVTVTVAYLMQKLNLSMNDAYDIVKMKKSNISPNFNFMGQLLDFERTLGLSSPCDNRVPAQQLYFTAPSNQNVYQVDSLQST

[7] = molecular target: Induced myeloid leukemia cell differentiation protein Mcl-1 (Homo sapiens, UniProt Q07820); type: functional
Induced myeloid leukemia cell differentiation protein Mcl-1, sequence (Q07820 whole entry): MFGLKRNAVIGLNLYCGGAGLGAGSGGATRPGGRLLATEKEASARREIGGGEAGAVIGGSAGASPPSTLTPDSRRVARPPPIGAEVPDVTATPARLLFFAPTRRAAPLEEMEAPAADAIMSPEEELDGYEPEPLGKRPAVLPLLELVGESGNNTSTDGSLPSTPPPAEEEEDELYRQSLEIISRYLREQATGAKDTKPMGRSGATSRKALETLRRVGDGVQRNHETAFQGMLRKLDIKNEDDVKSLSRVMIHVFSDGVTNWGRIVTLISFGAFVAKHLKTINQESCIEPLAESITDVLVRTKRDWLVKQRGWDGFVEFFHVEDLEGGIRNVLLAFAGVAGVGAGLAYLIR

[8] = molecular target: Eukaryotic translation initiation factor 4E (Mus musculus, UniProt P63073); assay: blockers of eIF4G binding by eIF4E – biochemical, TR-FRET, dose response (AID 855); type: functional;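 note: potency for disrupting eIF4E binding to eIF4GI seen as loss of FRET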
Eukaryotic translation initiation factor 4E, sequence (P63073 whole entry, the tested form may be a part): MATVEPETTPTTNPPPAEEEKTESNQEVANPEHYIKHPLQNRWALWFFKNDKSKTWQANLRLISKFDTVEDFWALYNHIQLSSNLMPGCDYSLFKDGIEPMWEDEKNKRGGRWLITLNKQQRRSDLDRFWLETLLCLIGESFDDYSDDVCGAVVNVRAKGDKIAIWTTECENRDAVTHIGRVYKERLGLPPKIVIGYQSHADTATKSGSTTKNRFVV

[9] = molecular target: T3, Oxysterols receptor LXR-beta (Homo sapiens, UniProt P55055); assay: LXR agonists, Gal4 luciferase reporter, dose response, counter-screen for ssDAF-12 agonist project, cell-based, luminescence, HEK293, S. stercoralis campaign (AID 720737); type: functional; details: read-out: IC50 (the source's name)
T3 sequence (P55055 whole entry): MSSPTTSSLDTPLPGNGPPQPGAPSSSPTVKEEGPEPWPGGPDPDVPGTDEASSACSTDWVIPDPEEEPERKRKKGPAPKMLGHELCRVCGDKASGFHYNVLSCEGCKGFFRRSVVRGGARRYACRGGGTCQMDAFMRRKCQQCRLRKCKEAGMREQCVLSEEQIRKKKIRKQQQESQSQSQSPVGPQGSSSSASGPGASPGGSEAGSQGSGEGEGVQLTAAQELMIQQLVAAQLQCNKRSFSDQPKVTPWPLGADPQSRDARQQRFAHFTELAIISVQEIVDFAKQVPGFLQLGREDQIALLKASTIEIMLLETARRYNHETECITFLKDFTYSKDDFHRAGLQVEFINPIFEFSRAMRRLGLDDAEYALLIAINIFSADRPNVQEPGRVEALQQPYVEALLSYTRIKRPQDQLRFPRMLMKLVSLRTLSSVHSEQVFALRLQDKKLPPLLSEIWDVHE

[10] = Luminescence-based cell-based high throughput dose response assay to identify activators of the DAF-12 from the parasite S. stercoralis (ssDAF-12).; type: functional
[11] = viability loss in A549 lung cells – cell-based, 24 h, CellTiter-Glo luminescence, cherry-picks, cytotoxicity control, dose response (AID 1053115); type: functional; details: A549, 24 h
[12] = lung carcinoma cell viability loss – CellTiter-Glo luminescence, dry powder, set 17, dose response (AID 1117284); type: functional, cell-based; details: A549
HeLa = assay: ATP-based viability loss in HeLa cells – cell-based, CellTiter-Glo luminescence, cherry-pick samples, cytotoxicity control for MITF activator project, dose response (AID 540259); type: functional; details: Homo sapiens
Bcl-2-related protein A1 [13] = molecular target: T4, Bcl-2-related protein A1 (Mus musculus, UniProt Q07440); assay: Bfl-1 binding inhibitors, SAR follow-up, biochemical, fluorescence polarization (AID 1070)
T4 sequence (Q07440 whole entry): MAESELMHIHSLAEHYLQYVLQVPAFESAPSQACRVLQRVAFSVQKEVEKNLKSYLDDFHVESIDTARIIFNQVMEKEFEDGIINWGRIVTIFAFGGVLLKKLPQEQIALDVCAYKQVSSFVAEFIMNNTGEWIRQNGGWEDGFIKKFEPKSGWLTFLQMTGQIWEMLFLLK

Bcl-2-related protein A1 [14] = molecular target: T4, Bcl-2-related protein A1; assay: small-molecule antagonists of Bfl-1/BH3 interaction – biochemical, TR-FRET, mouse Bfl-1, confirmation (AID 621);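 note: TR-FRET binding of GST-Bfl-1 to FITC-labelled Bid peptide via terbium antibody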

SMILES: O=C(NCC(c1cccnc1)N1CCN(c2ccccc2F)CC1)OCc1ccccc1 (stereo not given)
EC50 (cells): 0.071 µM (active)
EC50 [1]: > 60 µM (not active)
EC50 [2]: < 0.1 µM (active)

SMILES: COc1ccccc1Oc1ccc(S(=O)(=O)NCc2ccccn2)cc1
IC50 [3]: > 100 µM (not active)
AC50 [4]: 25.1 µM (active)
AC50 [5]: 14.8 µM (active)

IC50 (Protein Tat): 2.01 µM (inconclusive)
IC50 [6]: > 10 µM (not active)
IC50 [7]: 1.46 µM (active)
IC50 [8]: 21.2 µM (inactive)
SMILES: CCOC(=O)C1CCN(C(=O)Nc2ccc3nc(-c4ccco4)c(-c4ccco4)nc3c2)CC1

SMILES: Cc1nn(CC(=O)OC(C)C(=O)Nc2ccccc2[N+](=O)[O-])c(C)c1[N+](=O)[O-] (stereo not given)
EC50 [9]: > 67.5 µM (inactive)
IC50 [10]: > 67.5 µM (inactive)

SMILES: Cn1/c(=N\C(=O)c2ccco2)sc2ccccc21
EC50 [9]: > 67.5 µM (inactive)
IC50 [10]: > 67.5 µM (inactive)

SMILES: C[C@@H]1CN([C@H](C)CO)S(=O)(=O)c2ccc(C#C[C@@H](C)O)cc2O[C@H]1CN(C)Cc1ccc(-c2ccccc2)cc1
AC50 [11]: > 60 µM (inactive)
AC50 [12]: > 52 µM (inactive)

SMILES: c1ccc(-n2nnc(-c3cccnc3)n2)cc1
AC50 (HeLa): 213 µM (active)
IC50 (Bcl-2-related protein A1 [13]): > 100 µM (not active)
IC50 (Bcl-2-related protein A1 [14]): > 100 µM (not active)

IC50 [3]: > 100 µM (not active)
SMILES: Clc1ccccc1Cn1nnc2c(NCCN3CCOCC3)ncnc21
